biological target: TrkA (Homo sapiens (Human), UniProt P04629); experiment: TrkA Omnia Assay; type: biochemical; details: averaged IC50; 20 nM enzyme, 500 μM ATP, 10 μM peptide substrate
Summary of the method: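 Continuous fluorescent kinase read-out (ex 360 nm, em 485 nm) over 70 min, with initial rates fitted to 4- or 5-parameter logistic curves for IC50. Final conditions: 500 μM ATP, 10 μM Omnia Tyr Peptide #4, 20 nM TrkA, MOPS pH 7.5 buffer with MgCl2 and Triton X-100; enzyme and compound preincubated 10 min at ambient temperature.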

Sequence of TrkA (P04629 33-796): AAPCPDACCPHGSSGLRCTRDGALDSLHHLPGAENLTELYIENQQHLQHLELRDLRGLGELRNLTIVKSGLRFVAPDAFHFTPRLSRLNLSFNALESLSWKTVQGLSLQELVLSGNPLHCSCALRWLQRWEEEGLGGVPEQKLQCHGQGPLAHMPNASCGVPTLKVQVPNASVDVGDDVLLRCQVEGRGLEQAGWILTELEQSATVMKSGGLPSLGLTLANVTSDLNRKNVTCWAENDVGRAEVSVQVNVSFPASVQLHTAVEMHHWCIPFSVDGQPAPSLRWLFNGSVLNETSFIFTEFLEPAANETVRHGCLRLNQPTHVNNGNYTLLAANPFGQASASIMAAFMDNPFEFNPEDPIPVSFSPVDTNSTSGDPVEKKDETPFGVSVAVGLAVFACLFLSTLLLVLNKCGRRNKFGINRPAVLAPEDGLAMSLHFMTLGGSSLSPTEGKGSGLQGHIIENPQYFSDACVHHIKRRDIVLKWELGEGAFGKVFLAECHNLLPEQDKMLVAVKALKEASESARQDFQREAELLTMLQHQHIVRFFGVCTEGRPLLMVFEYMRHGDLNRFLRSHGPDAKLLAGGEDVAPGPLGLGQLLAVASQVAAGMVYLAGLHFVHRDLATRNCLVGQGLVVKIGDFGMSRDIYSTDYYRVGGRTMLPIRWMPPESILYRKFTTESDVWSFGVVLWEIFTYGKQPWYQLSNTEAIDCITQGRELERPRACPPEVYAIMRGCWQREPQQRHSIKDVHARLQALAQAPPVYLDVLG

| Structure (SMILES) | IC50 [nM] |
| --- | --- |
| COCCN1C[C@@H](NC(=O)Nc2c(C)c(-c3cnn(C)n3)nn2-c2ccccc2)[C@H](c2cccc(F)c2)C1 [Example 384, 1-((3S,4R)-4-(3-fluorophenyl)-1-(2-methoxyethyl)pyrrolidin-3-yl)-3-(4-methyl-3-(2-methyl-2H-1,2,3-triazol-4-yl)-1-phenyl-1H-pyrazol-5-yl)urea] | < 100 |
| COCCN1C[C@@H](NC(=O)Nc2c(C)c(-c3cnn(C)n3)nn2-c2ccccc2)[C@H](c2ccc(F)cc2)C1 [Example 385, 1-((3S,4R)-4-(4-fluorophenyl)-1-(2-methoxyethyl)pyrrolidin-3-yl)-3-(4-methyl-3-(2-methyl-2H-1,2,3-triazol-4-yl)-1-phenyl-1H-pyrazol-5-yl)urea] | < 100 |
| COCCN1C[C@@H](NC(=O)Nc2c(C)c(OCCN3CCOCC3)nn2-c2ccccc2)[C@H](c2ccc(F)c(F)c2)C1 [Example 386, 1-((3S,4R)-4-(3,4-difluorophenyl)-1-(2-methoxyethyl)pyrrolidin-3-yl)-3-(4-methyl-3-(2-morpholinoethoxy)-1-phenyl-1H-pyrazol-5-yl)urea] | < 100 |
| COCCN1C[C@@H](NC(=O)Nc2c(C)c(OCCN3C(=O)c4ccccc4C3=O)nn2-c2ccccc2)[C@H](c2ccc(F)c(F)c2)C1 [Example 387, 1-((3S,4R)-4-(3,4-difluorophenyl)-1-(2-methoxyethyl)pyrrolidin-3-yl)-3-(3-(2-(1,3-dioxoisoindolin-2-yl)ethoxy)-4-methyl-1-phenyl-1H-pyrazol-5-yl)urea] | < 100 |
| COCCN1C[C@@H](NC(=O)Nc2c(C)c(OCCN3CCN(C(=O)OC(C)(C)C)CC3)nn2-c2ccccc2)[C@H](c2ccc(F)c(F)c2)C1 [Example 388, tert-butyl 4-(2-((5-(3-((3S,4R)-4-(3,4-difluorophenyl)-1-(2-methoxyethyl)pyrrolidin-3-yl)ureido)-4-methyl-1-phenyl-1H-pyrazol-3-yl)oxy)ethyl)piperazine-1-carboxylate] | < 100 |
| COCCN1C[C@@H](NC(=O)Nc2c3ccccc3nn2-c2ccccc2)[C@H](c2ccccc2)C1 [Example 389] | < 100 |
| COCCN1C[C@@H](NC(=O)Nc2c3ccccc3nn2-c2ccccc2)[C@H](c2ccc(F)c(F)c2)C1 [Example 390, 1-((3S,4R)-4-(3,4-difluorophenyl)-1-(2-methoxyethyl)pyrrolidin-3-yl)-3-(2-phenyl-2H-indazol-3-yl)urea] | < 100 |
| COCCN1C[C@@H](NC(=O)Nc2c(C)c(OCc3ncn(C)n3)nn2-c2ccccc2)[C@H](c2ccc(F)c(F)c2)C1 [Example 391, 1-((3S,4R)-4-(3,4-difluorophenyl)-1-(2-methoxyethyl)pyrrolidin-3-yl)-3-(4-methyl-3-((1-methyl-1H-1,2,4-triazol-3-yl)methoxy)-1-phenyl-1H-pyrazol-5-yl)urea] | < 100 |
| COCCN1C[C@@H](NC(=O)Nc2c(C)c(OC[C@@H]3COC(C)(C)O3)nn2-c2ccccc2)[C@H](c2cc(F)cc(F)c2)C1 [Example 392, 1-((3S,4R)-4-(3,5-difluorophenyl)-1-(2-methoxyethyl)pyrrolidin-3-yl)-3-(3-(((R)-2,2-dimethyl-1,3-dioxolan-4-yl)methoxy)-4-methyl-1-phenyl-1H-pyrazol-5-yl)urea] | < 100 |
| COCCN1C[C@@H](NC(=O)Nc2c(C)c(OC[C@H]3COC(C)(C)O3)nn2-c2ccccc2)[C@H](c2cc(F)cc(F)c2)C1 [Example 393, 1-((3S,4R)-4-(3,5-difluorophenyl)-1-(2-methoxyethyl)pyrrolidin-3-yl)-3-(3-(((S)-2,2-dimethyl-1,3-dioxolan-4-yl)methoxy)-4-methyl-1-phenyl-1H-pyrazol-5-yl)urea] | < 100 |
| CCOc1nn(-c2cnccn2)c(NC(=O)N[C@@H]2CN(CCOC)C[C@H]2c2ccc(F)c(F)c2)c1C [Example 394, 1-((3S,4R)-4-(3,4-difluorophenyl)-1-(2-methoxyethyl)pyrrolidin-3-yl)-3-(3-ethoxy-4-methyl-1-(pyrazin-2-yl)-1H-pyrazol-5-yl)urea] | 100 to 1000 |
| COCCN1C[C@@H](NC(=O)Nc2c3c(nn2-c2ccnnc2)CCC3)[C@H](c2ccc(F)c(F)c2)C1 [Example 395, 1-((3S,4R)-4-(3,4-difluorophenyl)-1-(2-methoxyethyl)pyrrolidin-3-yl)-3-(2-(pyridazin-4-yl)-2,4,5,6-tetrahydrocyclopenta[c]pyrazol-3-yl)urea] | 100 to 1000 |
| COCCN1C[C@@H](NC(=O)Nc2c(C)c(OC(=O)N(C)C)nn2-c2ccccc2)[C@H](c2ccc(F)c(F)c2)C1 [Example 396, 5-(3-((3S,4R)-4-(3,4-difluorophenyl)-1-(2-methoxyethyl)pyrrolidin-3-yl)ureido)-4-methyl-1-phenyl-1H-pyrazol-3-yl dimethylcarbamate] | < 100 |
| COCCN1C[C@@H](NC(=O)Nc2c(C)c(OC(=O)N3CCOCC3)nn2-c2ccccc2)[C@H](c2ccc(F)c(F)c2)C1 [Example 397, 5-(3-((3S,4R)-4-(3,4-difluorophenyl)-1-(2-methoxyethyl)pyrrolidin-3-yl)ureido)-4-methyl-1-phenyl-1H-pyrazol-3-yl morpholine-4-carboxylate] | < 100 |
| COCCN1C[C@@H](NC(=O)Nc2c(C)c(OC[C@H]3COC(C)(C)O3)nn2-c2ccccc2)[C@H](c2cc(F)c(F)c(F)c2)C1 [Example 398, 1-(3-(((S)-2,2-dimethyl-1,3-dioxolan-4-yl)methoxy)-4-methyl-1-phenyl-1H-pyrazol-5-yl)-3-((3S,4R)-1-(2-methoxyethyl)-4-(3,4,5-trifluorophenyl)pyrrolidin-3-yl)urea] | < 100 |
| COCCN1C[C@@H](NC(=O)Nc2c(C)c(OC[C@@H]3COC(C)(C)O3)nn2-c2ccccc2)[C@H](c2cc(F)c(F)c(F)c2)C1 [Example 399, 1-(3-(((R)-2,2-dimethyl-1,3-dioxolan-4-yl)methoxy)-4-methyl-1-phenyl-1H-pyrazol-5-yl)-3-((3S,4R)-1-(2-methoxyethyl)-4-(3,4,5-trifluorophenyl)pyrrolidin-3-yl)urea] | < 100 |
| COCCN1C[C@@H](NC(=O)Nc2c(C)c(OC[C@H](C)O[Si](C)(C)C(C)(C)C)nn2-c2ccccc2)[C@H](c2cc(F)c(F)c(F)c2)C1 [Example 400, 1-(3-((S)-2-(tert-butyldimethylsilyloxy)propoxy)-4-methyl-1-phenyl-1H-pyrazol-5-yl)-3-((3S,4R)-1-(2-methoxyethyl)-4-(3,4,5-trifluorophenyl)pyrrolidin-3-yl)urea] | 100 to 1000 |
| COCCN1C[C@@H](NC(=O)Nc2c(C)c(OCC(C)(C)O)nn2-c2ccccc2)[C@H](c2cc(F)c(F)c(F)c2)C1 [Example 401, 1-(3-(2-hydroxy-2-methylpropoxy)-4-methyl-1-phenyl-1H-pyrazol-5-yl)-3-((3S,4R)-1-(2-methoxyethyl)-4-(3,4,5-trifluorophenyl)pyrrolidin-3-yl)urea] | < 100 |
| COCCN1C[C@@H](NC(=O)Nc2c(C)c(OC[C@H](COC)O[Si](C)(C)C(C)(C)C)nn2-c2ccccc2)[C@H](c2ccc(F)c(F)c2)C1 [Example 402, 1-(3-((S)-2-(tert-butyldimethylsilyloxy)-3-methoxypropoxy)-4-methyl-1-phenyl-1H-pyrazol-5-yl)-3-((3S,4R)-4-(3,4-difluorophenyl)-1-(2-methoxyethyl)pyrrolidin-3-yl)urea_] | 100 to 1000 |
| COCCN1C[C@@H](NC(=O)Nc2c(Cl)c(COC)nn2-c2ccccc2)[C@H](c2ccc(F)c(F)c2)C1 [Example 403, 1-(4-chloro-3-(methoxymethyl)-1-phenyl-1H-pyrazol-5-yl)-3-((3S,4R)-4-(3,4-difluorophenyl)-1-(2-methoxyethyl)pyrrolidin-3-yl)urea] | < 100 |
| COCCN1C[C@@H](NC(=O)Nc2c(Br)c(COC)nn2-c2ccccc2)[C@H](c2ccc(F)c(F)c2)C1 [Example 404, 1-(4-bromo-3-(methoxymethyl)-1-phenyl-1H-pyrazol-5-yl)-3-((3S,4R)-4-(3,4-difluorophenyl)-1-(2-methoxyethyl)pyrrolidin-3-yl)urea] | < 100 |
| COCCN1C[C@@H](NC(=O)Nc2c(Cl)c(COC)nn2-c2ccccc2)[C@H](c2cc(F)cc(F)c2)C1 [Example 405, 1-(4-chloro-3-(methoxymethyl)-1-phenyl-1H-pyrazol-5-yl)-3-((3S,4R)-4-(3,5-difluorophenyl)-1-(2-methoxyethyl)pyrrolidin-3-yl)urea] | < 100 |
| COCCN1C[C@@H](NC(=O)Nc2c(Br)c(COC)nn2-c2ccccc2)[C@H](c2cc(F)cc(F)c2)C1 [Example 406, 1-(4-bromo-3-(methoxymethyl)-1-phenyl-1H-pyrazol-5-yl)-3-((3S,4R)-4-(3,5-difluorophenyl)-1-(2-methoxyethyl)pyrrolidin-3-yl)urea] | < 100 |
| COCCN1C[C@@H](NC(=O)Nc2c(Cl)c(COC)nn2-c2ccccc2)[C@H](c2ccc(F)cc2)C1 [Example 407, 1-(4-chloro-3-(methoxymethyl)-1-phenyl-1H-pyrazol-5-yl)-3-((3S,4R)-4-(4-fluorophenyl)-1-(2-methoxyethyl)pyrrolidin-3-yl)urea] | < 100 |
| COCCN1C[C@@H](NC(=O)Nc2c(Br)c(COC)nn2-c2ccccc2)[C@H](c2ccc(F)cc2)C1 [Example 408, 1-(4-bromo-3-(methoxymethyl)-1-phenyl-1H-pyrazol-5-yl)-3-((3S,4R)-4-(4-fluorophenyl)-1-(2-methoxyethyl)pyrrolidin-3-yl)urea] | < 100 |
| COCCN1C[C@@H](NC(=O)Nc2c(Cl)c(C(F)(F)CO)nn2-c2ccccc2)[C@H](c2ccc(F)c(F)c2)C1 [Example 409, 1-(4-chloro-3-(1,1-difluoro-2-hydroxyethyl)-1-phenyl-1H-pyrazol-5-yl)-3-((3S,4R)-4-(3,4-difluorophenyl)-1-(2-methoxyethyl)pyrrolidin-3-yl)urea] | < 100 |
| COCCN1C[C@@H](NC(=O)Nc2c(Cl)c(C(F)(F)CO)nn2-c2ccccc2)[C@H](c2cc(F)cc(F)c2)C1 [Example 410, 1-(4-chloro-3-(1,1-difluoro-2-hydroxyethyl)-1-phenyl-1H-pyrazol-5-yl)-3-((3S,4R)-4-(3,5-difluorophenyl)-1-(2-methoxyethyl)pyrrolidin-3-yl)urea] | < 100 |

Source: patent US10323022B2, “Pyrrolidinyl urea, pyrrolidinyl thiourea and pyrrolidinyl guanidine compounds as TrkA kinase inhibitors” (Array BioPharma Inc., priority 2011, dated 2019)
